How the values were obtained:
[1] = test system: lamina propria lymphocytes; test: Apoptosis of anti-CD2/CD28 activated lamina propria lymphocytes in vitro; type: cell-based, human; settings: ulcerative colitis; 5 days
Source text: Isolation of primary CD4^+ T lymphocytes and lamina propria cells: Human peripheral blood mononuclear cells (PBMCs) from healthy volunteers (25-42 years of age) and patients with Crohn's disease (31-65 years of age) were isolated using Ficoll-Hypaque gradients. PBMCs were further purified using CD4 monoclonal antibodies attached to immunomagnetic beads according to the manufacturer's protocol, followed by treatment with Detachabead (Dynal; Oslo, Norway). In some cases, CD4^+ T cells were further separated by negative selection techniques using CD45RO or CD45RA monoclonal antibodies (PharMingen; Heidelberg, Germany) and immunomagnetic beads (Dynal). […]
For FACS analysis, apoptotic cells were detected by staining with annexin V and propidium iodide using the Annexin V FITC Apoptosis Detection Kit I (PharMingen) (Atreya et al., Nat. Med. 6:583-588 (2000)). […] To verify the results obtained with the annexin V/propidium iodide staining, analysis of T cells displaying DNA fragmentation was also determined by the Nicoletti technique, as described in (Nicoletti et al., J. Immunol. Methods 139:271-279 (1991)). […] Finally, cells were analyzed on a FACScan flow cytometer. […]

[2] = test system: lamina propria mononuclear cells; test: TUNEL assay for apoptotic lamina propria mononuclear cells in IBD patients; type: in vivo, human
Source text: FIG. 3. […] (a) LPMCs were isolated and stimulated with anti-CD2/CD28 plus IL-2 in the presence or absence of 6-MP for 5 days followed by FACS analysis. […] Data represent mean values±SEM from eight patients with IBD per group. […] Data are representative of 5-13 patients per group. Magnification, ×20 (bar=100 μm) (ce) and ×40 (bar=50 μm) (f-h). (i) Quantification of the percentage of apoptotic, TUNEL-positive LPMCs in patients with IBD receiving 6-MP as compared with untreated control patients. […] Data are mean values±SEM of 5-13 patients per group.

IκB = IκB phosphorylation and expression (Western blot); type: cell-based, human; settings: 3 days
Description: The cells were then washed in PBS, resuspended in 1 ml of T40E10N150 buffer (40 mM Tris-HCl [pH 7.9], 10 mM EDTA [pH 8.0], 150 mM NaCl), put on ice for 5 minutes, and centrifuged for 4 minutes at 4° C. at 1,000 rpm. The cell pellet was then resuspended on ice in 70 μl of buffer (10 mM HEPES [pH 8.0], 400 mM NaCl, 0.1 mM EDTA, 5% glycerol, 1 mM DTT, 1 mM PMSF) and centrifuged at 15,000 rpm for 30 minutes at 4° C. The protein concentrations in supernatants were determined with the Bio-Rad Protein Assay (Bio-Rad; Munich, Germany).
Western blots: Equal amounts of extract (30 μg) were added to 8 μl of electrophoresis sample buffer (Firma Roth; Karlsruhe, Germany). After boiling, the extracts were loaded on 15% SDS-PAGE gels and electrophoretically separated. Proteins were transferred to nitrocellulose membranes, and detection was performed with the ECL Western blotting analysis system (Amersham). […]

Structure (SMILES): Sc1ncnc2nc[nH]c12 [6-MP, 6-mercaptopurine]
- apoptosis in anti-CD2 plus anti-CD28 activated lamina propria lymphocytes [1]: capable of inducing apoptosis
- number of apoptotic cells ([2]; 6-MP-resistant patients with IBD): no increase
- number of apoptotic lamina propria mononuclear cells ([2]; successful 6-MP treatment vs untreated patients with IBD, P<0.01): significant increase
- IκB phosphorylation (IκB): suppressed
- IκB protein expression levels (IκB): unchanged
